In US7608622B2, “Imidazo[4,5-b]pyrazinone inhibitors of protein kinases” (Janssen Pharmaceutica NV, priority 2004, dated 2009):
pIC50: −log10 of the molar value.

Each molecule was assayed against T1, Aurora-2 (Homo sapiens, UniProt O14965) (assay: Aurora-2 Enzymatic Assay (ELISA-based)). Details: phosphorylated Aurora-2 (residues 125-391), Histone H3 Ser-10 phosphorylation, averages of three independent measurements; read-out: Aurora-2 IC50 Enzyme.
T1 construct: autophosphorylation of Aurora-2 (residues 125-391)
T1 sequence (O14965 125-391): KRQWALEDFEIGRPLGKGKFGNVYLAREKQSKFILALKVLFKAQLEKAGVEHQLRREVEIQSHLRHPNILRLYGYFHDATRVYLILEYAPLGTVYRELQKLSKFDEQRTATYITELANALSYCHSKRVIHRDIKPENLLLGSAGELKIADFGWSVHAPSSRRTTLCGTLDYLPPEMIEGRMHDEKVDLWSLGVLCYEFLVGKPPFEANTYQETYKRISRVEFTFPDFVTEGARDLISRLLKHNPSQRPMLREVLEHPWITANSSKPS
Type: biochemical
Experimental: In vitro assays were run to measure potency of Aurora-2 kinase inhibition by selected compounds of Formula I.
Aurora-2 Enzymatic Assay. An ELISA-based enzymatic assay was used to determine the compound potency for Aurora-2. In this assay, phosphorylated Aurora-2 (Pi-Aurora-2) catalyzes the ATP-dependent phosphorylation of Ser-10 of Histone H3. Pi-Aurora-2 was produced by autophosphorylation of Aurora-2 (residues 125-391) by 1 mM ATP in the presence of 10 mM MgCl2. The assay buffer used was 100 mM HEPES, pH 7.5, 1 mM DTT, 0.01% (v/v) Tween-20. Compounds were diluted in assay buffer containing 4% DMSO just prior to the assay. • Procedure. High-binding 96-well ELISA plates (Costar 9018) were coated overnight at 4° C. with 10 μg/ml human Histone H3 (Upstate) in PBS (100 μl/well). The following day, the plates were emptied and blocked with 1% BSA in PBS (150 μl/well) for 1 h at 37° C. At the end of the incubation, plates were washed 3 times with 0.01% Tween-20 in PBS (300 μl/well). 50 μl of compound were dispensed to each well followed by addition of 20 μl 10 mM MgCl2 and 20 μl 50 μM ATP (Sigma). The reaction was initiated by addition of 10 μl 30 nM Pi-Aurora-2. […] The reaction was quenched with 9 μl 50 mM EDTA and the plates were washed 5 times with 0.01% Tween-20 in PBS (300 μl/well). The phospho-histone H3 (Ser10) 6G3 monoclonal antibody (Cell Signaling) was then diluted 2,000-fold with 1% BSA in PBS, and was added to the plates (100 μl/well). Following 1 h incubation at 37° C., the plates were washed as described above. The HRP-conjugated secondary antibody (goat anti-mouse Ig(H+ L)-HRP human absorbed, Southern Biotechnology Associates, Inc.) was diluted 20,000-fold with 1% BSA in PBS and was added to the plates (100 μl/well). The plates were incubated for 1 h at 37° C. and then washed 5 times with 0.01% Tween-20 in PBS (300 μl/well). 100 μl/well TMB, SureBlue Reserve (KPL) were added. After ca. 5-6 min, each well received 100 μl 1 M HCl and the OD450 was measured with a SpectraMax Plus microplate reader (Molecular Devices). Under these conditions, absorbance values for positive and negative controls were ca. 0.1 and 1.7, respectively, and were used to define the 100% and 0% inhibition of the Aurora-2 reaction. The IC50 values reported (Table 1) are the averages of three independent measurements.

pIC50 | Structure (SMILES)
6.00 to 6.30 | COc1cc(-c2cnc3[nH]c(=O)n(Cc4cccc(N)c4)c3n2)cc(OC)c1OC [Compound 39, 1-(3-Aminobenzyl)-6-(3,4,5-trimethoxyphenyl)-1,3-dihydro-imidazo[4,5-b]pyrazin-2-one]
> 6.30 | COc1cc(-c2cnc3[nH]c(=O)n(Cc4ccccc4)c3n2)cc(OC)c1OC [Compound 3, 1-Benzyl-6-(3-4,5-trimethoxyphenyl)-1,3-dihydroimidazo[4,5-b]pyrazin-2-one]
< 6.00 | COc1ccc(-c2cnc3[nH]c(=O)n(Cc4ccccc4)c3n2)cn1 [Compound 11, 1-Benzyl-6-(6-methoxypyridin-3-yl)-1,3-dihydroimidazo[4,5-b]pyrazin-2-one]
6.00 to 6.30 | COc1ccc(-c2cnc3[nH]c(=O)n(Cc4ccccc4)c3n2)cc1OC [Compound 10, 1-Benzyl-6-(3,4-dimethoxyphenyl)-1,3-dihydroimidazo[4,5-b]pyrazin-2-one]
> 6.30 | COc1cc(-c2cnc3[nH]c(=O)n(Cc4cccc(Cl)c4)c3n2)cc(OC)c1OC [Compound 29, 1-(3-Chlorobenzyl)-6-(3,4,5-trimethoxyphenyl)-1,3-dihydro-imidazo[4,5-b]pyrazin-2-one]
> 6.30 | COc1ccc(-c2cnc3[nH]c(=O)n(Cc4ccccc4)c3n2)cc1C(=O)O [Compound 23, 5-(3-Benzyl-2-oxo-2,3-dihydro-1H-imidazo[4,5-b]pyrazin-5-yl)-2-methoxybenzoic acid]
6.00 to 6.30 | COc1cc(-c2cnc3[nH]c(=O)n(Cc4ccc5c(c4)OCO5)c3n2)cc(OC)c1OC [Compound 34, 1-Benzo[1,3]dioxol-5-ylmethyl-6-(3,4,5-trimethoxyphenyl)-1,3-dihydroimidazo[4,5-b]pyrazin-2-one]
6.00 to 6.30 | COc1cccc(Cn2c(=O)[nH]c3ncc(-c4cc(OC)c(OC)c(OC)c4)nc32)c1 [Compound 32, 1-(3-Methoxybenzyl)-6-(3,4,5-trimethoxyphenyl)-1,3-dihydro-imidazo[4,5-b]pyrazin-2-one]
< 6.00 | O=c1[nH]c2ncc(-c3cccnc3)nc2n1Cc1ccccc1 [Compound 9, 1-Benzyl-6-pyridin-3-yl-1,3-dihydroimidazo[4,5-b]pyrazin-2-one]
< 6.00 | C[C@@H](c1ccccc1)n1c(=O)[nH]c2ncc(-c3cccc(C#N)c3)nc21 [Compound 6, 3-[2-Oxo-3-((S)-(−)-1-phenylethyl)-2,3-dihydro-1H-imidazo[4,5-b]pyrazin-5-yl]benzonitrile]
> 6.30 | COc1cc(-c2cnc3[nH]c(=O)n(Cc4cccc(F)c4)c3n2)cc(OC)c1OC [Compound 31, 1-(3-Fluorobenzyl)-6-(3,4,5-trimethoxyphenyl)-10,3-dihydro-imidazo[4,5-b]pyrazin-2-one]
6.00 to 6.30 | C[C@@H](c1ccccc1)n1c(=O)[nH]c2ncc(-c3cccc(CO)c3)nc21 [Compound 7, 6-(3-Hydroxymethylphenyl)-1-((S)-(−)-1-phenylethyl)-1,3-dihydro-imidazo[4,5-b]pyrazin-2-one]
< 6.00 | COc1cc(-c2cnc3[nH]c(=O)n(Cc4cccc5ccccc45)c3n2)cc(OC)c1OC [Compound 33, 1-Naphthalen-1-ylmethyl-6-(3,4,5-trimethoxyphenyl)-1,3-dihydro-imidazo[4,5-b]pyrazin-2-one]
> 6.30 | COc1cc(-c2cnc3[nH]c(=O)n(Cc4ccc(N)cc4)c3n2)cc(OC)c1OC [Compound 38, 1-(4-Aminobenzyl)-6-(3,4,5-trimethoxyphenyl)-1,3-dihydroimidazo[4,5-b]pyrazin-2-one]
< 6.00 | COc1ccc(-c2cnc3[nH]c(=O)n(Cc4ccccc4)c3n2)cc1C(N)=O [Compound 26, 5-(3-Benzyl-2-oxo-2,3-dihydro-1H-imidazo[4,5-b]pyrazin-5-yl)-2-methoxybenzamide]
6.00 to 6.30 | O=C(O)c1cc(-c2cnc3[nH]c(=O)n(Cc4ccccc4)c3n2)ccc1O [Compound 25, 5-(3-Benzyl-2-oxo-2,3-dihydro-1H-imidazo[4,5-b]pyrazin-5-yl)-2-hydroxybenzoic acid]

pIC50 | Structure (SMILES)
< 6.00 | COc1cccc(-c2cnc3[nH]c(=O)n(Cc4ccccc4)c3n2)c1 [Compound 17, 1-Benzyl-6-(3-methoxyphenyl)-1,3-dihydroimidazo[4,5-b]pyrazin-2-one]
6.00 to 6.30 | COc1cc(-c2cnc3[nH]c(=O)n(Cc4ccc(Cl)cc4)c3n2)cc(OC)c1OC [Compound 28, 1-(4-Chlorobenzyl)-6-(3,4,5-trimethoxyphenyl)-1,3-dihydro-imidazo[4,5-b]pyrazin-2-one]
< 6.00 | COc1cc(-c2cnc3[nH]c(=O)n(Cc4cccc([N+](=O)[O-])c4)c3n2)cc(OC)c1OC [Compound 27, 1-(3-Nitrobenzyl)-6-(3,4,5-trimethoxyphenyl)-1,3-dihydroimidazo[4,5-b]pyrazin-2-one]
< 6.00 | C[C@@H](c1ccccc1)n1c(=O)[nH]c2ncc(-c3ccc4[nH]ccc4c3)nc21 [Compound 4, 6-(1H-Indol-5-yl)-1-((S)-(−)-1-phenylethyl)-1,3-dihydroimidazo[4,5-b]pyrazin-2-one]
> 6.30 | COc1cc(-c2cnc3[nH]c(=O)n(Cc4cccs4)c3n2)cc(OC)c1OC [Compound 36, 1-Thiophen-2-ylmethyl-6-(3,4,5-trimethoxyphenyl)-1,3-dihydro-imidazo[4,5-b]pyrazin-2-one]
< 6.00 | COc1ccc(-c2cnc3[nH]c(=O)n(Cc4ccccc4)c3n2)c(OC)c1 [Compound 14, 1-Benzyl-6-(2,4-dimethoxyphenyl)-1,3-dihydroimidazo[4,5-b]pyrazin-2-one]
6.00 to 6.30 | COc1cc(-c2cnc3[nH]c(=O)n(Cc4ccccn4)c3n2)cc(OC)c1OC [Compound 19, 1-Pyridin-2-ylmethyl-6-(3,4,5-trimethoxyphenyl)-1,3-dihydroimidazo[4,5-b]pyrazin-2-one]
> 6.30 | COc1cc(-c2cnc3[nH]c(=O)n(Cc4cccnc4)c3n2)cc(OC)c1OC [Compound 20, 1-Pyridin-3-yl methyl-6-(3,4,5-trimethoxyphenyl)-1,3-dihydroimidazo-[4,5-b]pyrazin-2-one]
< 6.00 | O=c1[nH]c2ncc(-c3cccs3)nc2n1Cc1ccccc1 [Compound 16, 1-Benzyl-6-thiophen-2-yl-1,3-dihydroimidazo[4,5-b]pyrazin-2-one]
> 6.30 | COc1cc(-c2cnc3[nH]c(=O)n(C4CCc5ccccc54)c3n2)cc(OC)c1OC (centres unmarked) [Compound 35, 1-Indan-1-yl-6-(3,4,5-trimethoxyphenyl)-1,3-dihydroimidazo[4,5-b]pyrazin-2-one]
< 6.00 | COc1ccc(-c2cnc3[nH]c(=O)n(Cc4ccccc4)c3n2)cc1CO [Compound 24, 1-Benzyl-6-(3-hydroxymethyl-4-methoxyphenyl)-1,3-dihydro-imidazo[4,5-b]pyrazin-2-one]
< 6.00 | O=c1[nH]c2ncc(-c3ccsc3)nc2n1Cc1ccccc1 [Compound 15, 1-Benzyl-6-thiophen-3-yl-1,3-dihydroimidazo[4,5-b]pyrazin-2-one]
6.00 to 6.30 | COc1cc(-c2cnc3[nH]c(=O)n(Cc4cccc(C)c4)c3n2)cc(OC)c1OC [Compound 30, 1-(3-Methylbenzyl)-6-(3,4,5-trimethoxyphenyl)-1,3-dihydro-imidazo[4,5-b]pyrazin-2-one]
< 6.00 | COc1ccc(-c2cnc3[nH]c(=O)n(Cc4ccccc4)c3n2)cc1C=O [Compound 22, 5-(3-Benzyl-2-oxo-2,3-dihydro-1H-imidazo[4,5-b]pyrazin-5-yl)-2-methoxybenzaldehyde]
< 6.00 | COCc1cccc(-c2cnc3[nH]c(=O)n(Cc4ccccc4)c3n2)c1 [Compound 12, 1-Benzyl-6-(3-methoxymethylphenyl)-1,3-dihydroimidazo[4,5-b]pyrazin-2-one]
< 6.00 | C[C@@H](c1ccccc1)n1c(=O)[nH]c2ncc(-c3cc4ccccc4[nH]3)nc21 [Compound 8, 6-(1H-Indol-2-yl)-1-((S)-(−)-1-phenylethyl)-1,3-dihydro-imidazo[4,5-b]pyrazin-2-one]
